We go through four molecules from patent US7041446B2, “Labeled protein and its producing method, labeling compound to be used in the method, and method for analyzing function of genes” (priority 1998, dated 2006).

Assay [1] concerns C-terminal of thioredoxin. The assay can be described thus: Labeling of translated protein in cell-free transcription-translation system of E. coli. The format is biochemical. As to conditions: for linkage to the C-terminal of thioredoxin: cell-free transcription-translation system of E. coli. As for the experimental part:
rCpPur (30 pmol) was phosphorylated by T4 polynucleotide kinase (10 units) in the presence of γ-^33P-ATP (9.25 MBq). The reaction was carried out under the condition of 37° C. for 1 hour. After the reaction was over, the reaction mixture was heated at 70° C. for 20 minutes to inactivate the enzyme.
Labeling reaction was carried out using a cell-free transcription-translation system of E. coli. The reaction mixture (25 μl) of the cell-free transcription-translation system of E. coli had the following composition: 7.5 μl of E. coli S30 extract (containing T7 RNA polymerase), 10 μl of E. coli S30 premix, 2.5 μl of an amino acid mixed solution, 1 μl of an RNase inhibitor, 1 μg of plasmid (thioredoxin), and 0.0003 to 0.3 μM (final concentration) of the ^33P-rCpPur described above. As a control, the reaction was carried out also in a system containing ^35S-methionine (1.2 μM). After the reaction was carried out at 37° C. for 30 minutes, precipitation was performed with acetone. A buffer solution (pH 8) containing 1% SDS was added to the precipitate, and then heated at 90° C. for 5 minutes for dissolution, separated by SDS-15% polyacrylamide gel electrophoresis, and analyzed using an image analyzer (Fuji Photo Film, BAS 2000). […] When the concentration of ^33P-rCpPur was 0.3 μM, a distinct band corresponding to the full-length thioredoxin was detected at the position of apparent molecular weight of 12 kDa. […] The band with an apparent molecular weight of 12 kDa was detected even when labeled with ^35S-methionine (final concentration: 1.2 μM) (FIG. 3).
Fluorescent labeling of a protein by a cell-free transcription-translation system of E. coli in the presence of Fluorpur and Fluorthiopur was examined. […] After the reaction was carried out at 37° C. for 30 minutes, precipitation was performed with acetone. A buffer solution (pH 8) containing 1% SDS was added to the precipitate, then heated at 90° C. for 5 minutes for dissolution, separated by SDS-15% polyacrylamide gel electrophoresis, and detected for fluorescent bands of protein using a fluorescent gel scanner (Fluor Imager 585, Molecular Dynamics). Measurement was made at an excitation wavelength of 488 nm and an emission wavelength of 520 nm. FIGS. 4A, 4B and 4C show the results of fluorescent labeling of thioredoxin with Fluorpur and Fluorthiopur. For both Fluorpur and Fluorthiopur in a concentration ranges of 0.36 to 1.44 μM, fluorescent bands were detected at the position of apparent molecular weight of 12 kDa indicated by an arrow (FIGS. 4A and 4B).

Assay [2] deals with protein synthesis of bacteria. The note with it: cited from earlier work.
Assay [3] has as its system protein synthesis of animal cells. As to conditions: cited from earlier work.
In assay [4] the test system is full-length protein of thioredoxin. Kind of assay: Labeling of thioredoxin in cell-free transcription-translation system containing nuclease treated rabbit reticulocyte lysate. The format is biochemical, E. coli. As for the experimental part:
(§1) The fluorescent labeling of the full-length protein of thioredoxin with Fluorpur and Fluorthiopur was confirmed also in a cell-free transcription-translation system containing nuclease treated rabbit reticulocyte lysate or wheat germ lysate. The respective optimal concentrations of Fluorpur and Fluorthiopur necessary for fluorescent labeling were 0.3 to 50 μM in the system containing nuclease treated rabbit reticulocyte lysate and 10 to 50 μM in the case of the system containing wheat germ lysate.

The test system is the same in assay [5]. Kind of assay: Labeling of thioredoxin in cell-free transcription-translation system containing wheat germ lysate. The format is biochemical, E. coli. The procedure:
as §1

Consider `CSCC[C@H](N)C(=O)O` [^35S-methionine, reference compound], for which the “band with an apparent molecular weight of 12 kDa” value in assay [1] (control label, final concentration 1.2 μM) is given as “detected”.
Regarding `COc1ccc(C[C@H](N)C(=O)N[C@H]2[C@@H](O)[C@H](n3cnc4c(N(C)C)ncnc43)O[C@@H]2CO)cc1` [puromycin, 3′-[α-amino-p-methoxyhydro-cinnamamido]-3′-deoxy-N,N′-dimethyladenosine], the “inhibition of protein synthesis” value in assay [2] and in assay [3] was “inhibit the protein synthesis” in each case.
“fluoresceinylphosphopuromycin [Fluorpur]”: in assay [1], the “linkage to the C-terminal of thioredoxin” value was “linked to the C-terminal of the full-length protein”. For the same molecule, the “labeling of the full-length protein of thioredoxin” value in assay [4] and in assay [5] was “can be confirmed” each time.
As to “fluoresceinylthiophophopuromycin [Fluorthiopur]”, the “linkage to the C-terminal of thioredoxin” value in assay [1] was “linked to the C-terminal of the full-length protein”. The “incorporation compared with Fluorpur” value in assay [1] (fluorescent labeling of thioredoxin, E. coli system) was “more or less efficiently”. Besides, the “labeling of the full-length protein of thioredoxin” value in assay [4] and in assay [5] was “can be confirmed” each time.
